According to US5814488A (priority 1993, dated 1998):
Converted amounts (≈) assume the structure as drawn. Like-named read-outs stand apart in the source and are kept apart here.

How the values were obtained:
Escherichia coli = assay: Comparison of MIC and MBC (Tables 5 and 6); format: cell-based; conditions: Table 6, 20 strains
Text: (§1) […]. […] […]

Klebsiella pneumoniae = assay: Comparison of MIC and MBC (Tables 5 and 6); format: cell-based; conditions: Table 6, 20 strains
Text: as §1

Pseudomonas sp. = assay: Comparison of MIC and MBC (Tables 5 and 6); format: cell-based; conditions: Table 6, Pseudomonas sp., 20 strains
Text: as §1

S. aureus = assay: Comparison of MIC and MBC (Tables 5 and 6); format: cell-based; conditions: Table 6, S. aureus, 31 strains
Text: as §1

Shigella = assay: Comparison of MIC and MBC (Tables 5 and 6); format: cell-based; conditions: Table 6, 10 strains
Text: as §1

[1] = guinea pig, in vivo
[2] = Nephrotoxicity to rat after i.m. administration; conditions: gentamicin at 150 MKD and 100 MKD from seventh day

Question: With `NCC[C@H](O)C(=O)N[C@@H]1C[C@H](N)[C@@H](O[C@H]2O[C@H](CN)[C@@H](O)[C@H](O)[C@H]2O)[C@H](O)[C@H]1O[C@H]1O[C@H](CO)[C@@H](O)[C@H](N)[C@H]1O` [Amikacin] as the compound, how does the MBC (Escherichia coli; read-out: MBC90) read?
Answer: 2 µg/mL (≈ 3.42 µM)

Question: And the MBC (Escherichia coli; read-out: MBC range)?
Answer: 0.25 to 8 µg/mL (≈ 0.427 to 13.7 µM)

Question: What about the MBC (Klebsiella pneumoniae; read-out: MBC90) of the same compound?
Answer: 1 µg/mL (≈ 1.71 µM)

Question: What about the MBC (Klebsiella pneumoniae; read-out: MBC range) of the same compound?
Answer: 0.125 to 2 µg/mL (≈ 0.213 to 3.42 µM)

Question: What about the MBC (Pseudomonas sp.; read-out: MBC90) of the same compound?
Answer: 64 µg/mL (≈ 109 µM)

Question: And the MBC (Pseudomonas sp.; read-out: MBC range)?
Answer: 1 to 64 µg/mL (≈ 1.71 to 109 µM)

Question: What about the MBC (S. aureus; Staphylococcus aureus, read-out: MBC90) of the same compound?
Answer: 32 µg/mL (≈ 54.6 µM)

Question: What about the MBC range (S. aureus; in µg/mL (unit assumed)) of the same compound?
Answer: 0.125-128

Question: And the MBC (Shigella; read-out: MBC90)?
Answer: 0.5 µg/mL (≈ 0.854 µM)

Question: And the MBC (Shigella; read-out: MBC range)?
Answer: 0.25 to 1 µg/mL (≈ 0.427 to 1.71 µM)

Question: And the ABR threshold [1]?
Answer: increases of ABR threshold were observed

Question: And the auditory function [1]?
Answer: nearly all the auditory function of the animals were lost

Question: And the dead animals [2]?
Answer: no dead
